# From US5877210A, “Phosphotyrosine phosphatase inhibitors or phosphotyrosine kinase activators for controlling cellular proliferation” (priority 1995, dated 1999)
# Where “and” joins values, the source holds several entries; their conditions need not be identical. Equal entries are not always repeated. Entries after “also recorded” stand apart in the source; their conditions may differ.
# Experiments:
# T cells = test: Anti-phosphotyrosine immunoblot of T cell lysates, basal and anti-CD3 stimulated; assay type: cell-based; conditions: 16 h, even at 50 μM BMLOV
# Method: In the experiments shown in FIG. 25, human PHA-induced T cell blasts were treated overnight with the indicated concentrations of BMLOV. In Panel A, the baseline level of intracellular free Ca^2+ ([Ca^2+ ]i) was established for 1 min, and then the cells were treated with biotinylated anti-CD3 mAb (G19-4). After 5 min avidin was added (gap in the trace) to cross-link the antibody. In Panel B, assays were performed as in Panel A, but in the presence of 5 mM EGTA. […] In the experiments shown in FIG. 26, cells were treated 16 h with BMLOV and then stimulated with anti-CD3 mAb G19-4 for 5 min. Cells were then washed and resuspended in fresh media at equal concentrations of BMLOV at 37° C. Cells were then harvested and lysed at times following the initiation of CD3 stimulation as indicated. Antibody binding in immunoblots was detected by ECL.
# Jurkat = test: [3H]thymidine incorporation assay; assay type: cell-based, human; conditions: for [3H]cpm incorporation: seven days
# Method: (§1) For each cell type, the cells were passaged uniformly for all drug doses given during the seven-day period. The cells were then pulsed for six hours with [^3 H]thymidine. The extent of DNA synthesis was then determined by counting the radioactivity incorporated into the cells.
# (§2) For assays of cellular proliferation, cells were grown five days in the presence of the indicated concentrations of BMLOV, pulsed 6 hr with [^3 H]-thymidine (New England Nuclear, Boston, Mass.), and counted in a liquid scintillation counter. Human peripheral blood lymphocytes (PBL) from normal volunteers were isolated from lymphocyte separation medium (Litton Bionetics, Kensington, Md.) by density gradient centrifugation. Monocytes were depleted from PBL by two rounds of plastic absorption for 30 minutes at 37° C. B cells were enriched for by negative selection using complement plus monoclonal antibodies to CD2, CD3, CD4, and CD8 for complement depletion. Clonogenic assays of colony formation in methylcellulose medium were performed as previously described (F. M. Uckun et al. (1992), supra).
# CEM = test: [3H]thymidine incorporation assay; assay type: cell-based, human; conditions: for [3H]cpm incorporation: seven days
# Method: as §1, §2
# HL-60 = test: [3H]thymidine incorporation assay; assay type: cell-based, human; conditions: for [3H]cpm incorporation: seven days
# Method: as §1, §2
# THP-1 = test: [3H]thymidine incorporation assay; assay type: cell-based, human; conditions: for [3H]cpm incorporation: seven days
# Method: as §1, §2
# REH = test: Clonogenic assay in methylcellulose; assay type: cell-based; conditions: for colonies formed: seven days
# Method: The selective cytotoxicity of BMLOV was examined in clonogenic assays. Cells were grown in methylcellulose media and the number of colonies formed after seven days of treatment with various doses of the drug were determined. The clonogenic assays were performed with six replicates for each treatment as described [F. M. Uckun et al., J. Exp. Med. 163:347-368 (1986); F. M. Uckun & J. A. Ledbetter, Proc. Natl. Acad. Sci. USA 85:8603-8607 (1988)). The data is given plus/minus the standard error of the mean.
# as §2
# [1] = tested on: peripheral blood lymphocytes (PBL); test: PBL growth driven by antibody/cytokine stimulation; assay type: cell-based, human
# [2] = tested on: REH, Ramos, CEM, Jurkat, HL-60, and THP-1; test: [3H]thymidine incorporation, cell line panel (FIG. 17); assay type: cell-based; conditions: 5 μM pV(phen), 5 days
# Method: Similar results are shown in FIG. 17 for the cell lines REH, Ramos, CEM, Jurkat, HL-60, and THP-1. Cells were treated 5 days with the amount of inhibitor indicated and [^3 H]-thymidine incorporation was then measured to determine proliferation. The percent inhibition was calculated relative to untreated controls. Results are shown for three concentrations of BMLOV (5 μM, 10 μM, and 25 μM and 5 μM of pV(phen)).
# HCT116(VP)35 = test: In vitro cytotoxicity, XTT assay
# Method: (§3) The vanadate compound pV(phen) was tested for in vitro cytotoxicity in a panel of human tumor cell lines. The cell lines used were a human colon carcinoma cell line, HCT116, and two drug-resistant sublines. The HCT116(VM46) subline was selected for resistance to VM-26 and expresses the multidrug resistant (MDR) phenotype including resistance to lipophilic anticancer drugs such as paclitaxel, VP-16, VM-26, doxorubicin, and vinblastine. This cell line overexpresses P-glycoprotein, a cell surface drug efflux pump, which limits accumulation of anticancer drugs such as the ones mentioned above. […] The compound pV(phen) was also evaluated in the ovarian carcinoma cell line A2780 and a paclitaxel resistant subline A2780-Tax22.
# (§4) In the cytotoxicity assays, cells were plated and 24 hr later drugs were added and serially diluted. After 72 hr of continuous drug exposure, the tetrazolium dye XTT was added. A dehydrogenase enzyme in live cells reduces the XTT to a form that absorbs light at 450 nm which can be quantitated spectrophotometrically. The greater absorbance, the greater is the number of live cells. The results are expressed as a IC50 which is a drug concentration required to inhibit cell proliferation (i.e., absorbance at 450 nm) to 50% of that of untreated control cells.
# HCT116(VM)46 = test: In vitro cytotoxicity, XTT assay
# Method: as §3, §4
# [3] = tested on: i.p. M109 murine lung carcinoma; test: In vivo antitumor test, M109; conditions: for Max. % T/C: qd 1→5, ip
# Method: The compound pV(phen) was tested for its antitumor activity in vivo. A summary of the antitumor test results is shown below in Table 13. In the i.p. M109 murine lung carcinoma model (Experiment No. 330; Table 13), consecutive daily i.p. injections each day from day 1 to 5 were effective in achieving an active result. […] A maximum T/C of 143%, consistent with the first result, was obtained.
# [4] = tested on: i.p. implanted P388 murine leukemia; test: In vivo antitumor test, P388
smiles,measurement,setting,value
"Cc1occc(=O)c1[O-].Cc1occc(=O)c1[O-].[O]=[V+2] [BMLOV, Bis(maltolato)oxovanadium (IV)]",basal or T cell receptor induced cellular tyrosine phosphorylation,T cells,little effect on basal or T cell receptor induced cellular tyrosine phosphorylation
same,[3H]cpm incorporation,Jurkat; 1 μM BMLOV,149950 cpm
same,[3H]cpm incorporation,Jurkat; 5 μM BMLOV,118720 cpm
same,[3H]cpm incorporation,Jurkat; 10 μM BMLOV,98057 cpm
same,[3H]cpm incorporation,Jurkat; 25 μM BMLOV,26511 cpm
same,"sensitivity of proliferation to BMLOV, in words","Jurkat; 25 μM, 5 or 7 days",moderately sensitive; also recorded: substantially inhibited
same,[3H]cpm incorporation,CEM; 1 μM BMLOV,368721 cpm
same,[3H]cpm incorporation,CEM; 5 μM BMLOV,403576 cpm
same,[3H]cpm incorporation,CEM; 10 μM BMLOV,371256 cpm
same,[3H]cpm incorporation,CEM; 25 μM BMLOV,313714 cpm
same,"sensitivity of proliferation to BMLOV, in words","CEM; 25 μM, 5 or 7 days",resistant; also recorded: only small effects
same,[3H]cpm incorporation,HL-60; 1 μM BMLOV,191637 cpm
same,[3H]cpm incorporation,HL-60; 5 μM BMLOV,276505 cpm
same,[3H]cpm incorporation,HL-60; 10 μM BMLOV,222178 cpm
same,[3H]cpm incorporation,HL-60; 25 μM BMLOV,11398 cpm
same,"sensitivity of proliferation to BMLOV, in words","HL-60; 25 μM, 5 or 7 days",moderately sensitive; also recorded: showed an inhibition of growth
same,[3H]cpm incorporation,THP-1; 1 μM BMLOV,201670 cpm
same,[3H]cpm incorporation,THP-1; 5 μM BMLOV,178290 cpm
same,[3H]cpm incorporation,THP-1; 10 μM BMLOV,199993 cpm
same,[3H]cpm incorporation,THP-1; 25 μM BMLOV,112209 cpm
same,"sensitivity of proliferation to BMLOV, in words","THP-1; 25 μM, 5 or 7 days",only partial sensitivity; also recorded: showed an inhibition of growth
same,percentage of inhibition of clonogenic growth,REH; 1 μM BMLOV,64.7%
same,colonies formed,REH; 1 μM BMLOV,1810 ± 385 colonies per 10^4 cells
same,percentage of inhibition of clonogenic growth,REH; 5 μM BMLOV,98.6%
same,colonies formed,REH; 5 μM BMLOV,71 ± 8 colonies per 10^4 cells
same,percentage of inhibition of clonogenic growth,REH; 10 μM BMLOV,99.8%
same,colonies formed,REH; 10 μM BMLOV,8 ± 1 colonies per 10^4 cells
same,PBL growth driven by anti-CD28 antibody plus IL-2,[1]; 1 μM BMLOV,markedly inhibited
same,PBL growth driven by anti-CD3 antibody plus anti-CD28 antibody,[1]; 10 μM BMLOV,strongly inhibited
"[Na+].[O]=[V-]12([O][O]1)[O][O]2.c1cnc2c(c1)ccc1cccnc12 [pV(phen), sodium (1,10-phenanthroline) oxodiperoxovanadium (V)]","inhibition of proliferation, in words",[2],inhibits all cell types studied
same,IC50,"HCT116(VP)35; hct116(vp35) cells, 72 h",7.2 µM
same,fold resistance relative to parental cell line,"HCT116(VP)35; vs HCT116, 4320 min",0.9 fold
same,IC50,"HCT116(VM)46; hct116(vm46) cells, 72 h",2 µM
same,fold resistance relative to parental cell line,"HCT116(VM)46; vs HCT116, 4320 min",0.2 fold
same,Max. % T/C,"[3]; Expt. 330, 12 mg/kg/inj",144%
same,Max. % T/C,"[3]; Expt. 333, 12 mg/kg/inj (MTD reached)",143%
same,cumulative MTD,[3]; last M109 experiment,60 mg/kg
same,Max. % T/C,"[4]; Expt. 8457, 8 mg/kg/inj (MTD reached), d.1, ip, 8 mg/kg",< 125% and 105%
same,dose considered to be a MTD,"[4]; daily i.p. injections days 1 to 5, Expt. 8459",12 mg/kg per injection
same,"excessively toxic, i.e. lethal, dose","[4]; single i.p. doses, Expt. 8457",greater than or equal to 32 mg/kg
